Columns and labels:
Human Axl = Human Axl (Homo sapiens (Human), UniProt P30530, Q764R); assay: Human AXL kinase assay (33P radiometric, KinaseProfiler); assay type: biochemical; conditions: 10 μM ATP
Description: Kinase activity and compound inhibition were investigated using the ^33P-Phosphoryl transfer radiometric kinase assay, performed using the KinaseProfiler™ service of Eurofins Pharma Discovery Services UK Limited. Dose-response experiments were performed using nine compound concentrations in a 96-well microtiter plate. For each assay, all compounds were prepared to a 50× final assay concentration (50 μM) in 100% DMSO, then diluted in a half-log series, with the final top concentration at 1 μM. This working stock of the compound was added to the assay well as the first component in the reaction, followed by the remaining components as detailed in the following assay protocols below. The positive control wells (100% kinase activity) contain all components of the reaction including 2% DMSO (control for solvent effects), except the compound of interest. Blank wells contain all components of the reaction, with the reference inhibitor, staurosporine. This reference compound was used to abolish kinase activity and generated the 0% kinase activity base-line. IC50 values were calculated by nonlinear regression analysis using the sigmoidal dose-response (variable slope) curve fit on XLFit version 5.3 (ID Business Solutions).
Human Axl (residues H473-A894 with Q764R, 161 nM) was incubated with 8 mM MOPS pH 7.0, 0.2 mM EDTA, 250 μM KKSRGDYMTMQIG (SEQ ID NO. 43), 10 mM magnesium acetate and 10 μM [γ-33P-ATP]. The reaction was initiated by the addition of the Mg/ATP mix. After incubation for 40 minutes at room temperature, the reaction was stopped by the addition of phosphoric acid to a concentration of 0.5%. A reaction aliquot of 10 μL was then spotted onto a P30 filtermat and washed four times for 4 minutes in 0.425% phosphoric acid and once in methanol prior to drying and scintillation counting. Incorporated ^33P was measured using the Wallac Microbeta scintillation counter (Perkin Elmer).

KDR = KDR (Homo sapiens (Human), UniProt P35968); assay: KDR autophosphorylation ELISA in HUVEC cells; assay type: cell-based; conditions: cellular, VEGF165-stimulated, phospho-KDR ELISA
In short: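 Serum-starved (24 h) HUVECs were pre-treated with compound (8-point dose curve, 0.3% DMSO final) for 1 h, then stimulated with 100 ng/mL human VEGF165 for 5 min. Lysate phospho-KDR was quantified by ELISA against a phospho-KDR standard. IC50 came from a 4-parameter logistic fit, normalized to stimulated-DMSO (100%) and unstimulated (0%) controls.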

AXL = AXL (Homo sapiens (Human), UniProt P30530); assay: AXL autophosphorylation ELISA in A-172 cells; assay type: cell-based; conditions: cellular, Gas6-stimulated, phospho-AXL ELISA
In short: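 A-172 glioblastoma cells, serum-starved 24 h, got 8-point compound dilutions (0.3% DMSO) for 1 h, then 1 μg/mL human Gas6 for 15 min. Phospho-AXL in lysates was quantified by ELISA against a standard, normalized between DMSO and reference-inhibitor controls; IC50 by 4-parameter logistic fit.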

Sequence of Human Axl (P30530 473-894 Q764R): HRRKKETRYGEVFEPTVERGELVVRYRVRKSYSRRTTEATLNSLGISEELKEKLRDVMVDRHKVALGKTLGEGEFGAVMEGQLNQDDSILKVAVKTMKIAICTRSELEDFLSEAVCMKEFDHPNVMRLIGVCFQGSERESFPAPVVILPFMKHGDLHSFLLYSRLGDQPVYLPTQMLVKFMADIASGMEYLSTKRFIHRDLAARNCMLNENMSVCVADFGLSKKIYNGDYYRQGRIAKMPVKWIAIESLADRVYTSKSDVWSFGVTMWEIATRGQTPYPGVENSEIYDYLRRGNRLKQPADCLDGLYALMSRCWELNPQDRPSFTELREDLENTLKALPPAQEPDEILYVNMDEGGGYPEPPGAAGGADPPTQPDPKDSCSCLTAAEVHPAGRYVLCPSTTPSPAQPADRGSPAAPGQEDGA
Sequence of AXL (P30530 26-894): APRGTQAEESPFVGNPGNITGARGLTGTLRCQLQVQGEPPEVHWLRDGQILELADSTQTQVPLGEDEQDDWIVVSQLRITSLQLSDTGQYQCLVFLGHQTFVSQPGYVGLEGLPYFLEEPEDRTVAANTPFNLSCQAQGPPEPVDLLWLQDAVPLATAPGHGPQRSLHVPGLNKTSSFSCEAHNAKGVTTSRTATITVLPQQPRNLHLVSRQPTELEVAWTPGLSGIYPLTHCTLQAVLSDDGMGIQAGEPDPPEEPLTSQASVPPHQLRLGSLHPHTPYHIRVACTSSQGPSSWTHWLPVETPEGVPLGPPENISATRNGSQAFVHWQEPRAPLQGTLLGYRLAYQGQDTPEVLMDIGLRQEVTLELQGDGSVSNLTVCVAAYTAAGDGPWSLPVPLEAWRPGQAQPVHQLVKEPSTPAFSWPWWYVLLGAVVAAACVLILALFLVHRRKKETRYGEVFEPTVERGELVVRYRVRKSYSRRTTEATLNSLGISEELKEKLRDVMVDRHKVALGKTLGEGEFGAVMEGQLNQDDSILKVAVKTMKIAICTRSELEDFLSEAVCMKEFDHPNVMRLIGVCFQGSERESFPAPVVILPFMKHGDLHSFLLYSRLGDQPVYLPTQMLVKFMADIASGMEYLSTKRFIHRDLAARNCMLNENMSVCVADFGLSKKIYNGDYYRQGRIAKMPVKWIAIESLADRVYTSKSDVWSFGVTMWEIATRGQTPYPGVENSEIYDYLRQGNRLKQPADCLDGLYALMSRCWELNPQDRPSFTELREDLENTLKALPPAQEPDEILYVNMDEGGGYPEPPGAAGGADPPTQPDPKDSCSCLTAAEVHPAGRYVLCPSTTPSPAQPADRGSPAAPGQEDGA
Sequence of KDR (P35968 20-1356): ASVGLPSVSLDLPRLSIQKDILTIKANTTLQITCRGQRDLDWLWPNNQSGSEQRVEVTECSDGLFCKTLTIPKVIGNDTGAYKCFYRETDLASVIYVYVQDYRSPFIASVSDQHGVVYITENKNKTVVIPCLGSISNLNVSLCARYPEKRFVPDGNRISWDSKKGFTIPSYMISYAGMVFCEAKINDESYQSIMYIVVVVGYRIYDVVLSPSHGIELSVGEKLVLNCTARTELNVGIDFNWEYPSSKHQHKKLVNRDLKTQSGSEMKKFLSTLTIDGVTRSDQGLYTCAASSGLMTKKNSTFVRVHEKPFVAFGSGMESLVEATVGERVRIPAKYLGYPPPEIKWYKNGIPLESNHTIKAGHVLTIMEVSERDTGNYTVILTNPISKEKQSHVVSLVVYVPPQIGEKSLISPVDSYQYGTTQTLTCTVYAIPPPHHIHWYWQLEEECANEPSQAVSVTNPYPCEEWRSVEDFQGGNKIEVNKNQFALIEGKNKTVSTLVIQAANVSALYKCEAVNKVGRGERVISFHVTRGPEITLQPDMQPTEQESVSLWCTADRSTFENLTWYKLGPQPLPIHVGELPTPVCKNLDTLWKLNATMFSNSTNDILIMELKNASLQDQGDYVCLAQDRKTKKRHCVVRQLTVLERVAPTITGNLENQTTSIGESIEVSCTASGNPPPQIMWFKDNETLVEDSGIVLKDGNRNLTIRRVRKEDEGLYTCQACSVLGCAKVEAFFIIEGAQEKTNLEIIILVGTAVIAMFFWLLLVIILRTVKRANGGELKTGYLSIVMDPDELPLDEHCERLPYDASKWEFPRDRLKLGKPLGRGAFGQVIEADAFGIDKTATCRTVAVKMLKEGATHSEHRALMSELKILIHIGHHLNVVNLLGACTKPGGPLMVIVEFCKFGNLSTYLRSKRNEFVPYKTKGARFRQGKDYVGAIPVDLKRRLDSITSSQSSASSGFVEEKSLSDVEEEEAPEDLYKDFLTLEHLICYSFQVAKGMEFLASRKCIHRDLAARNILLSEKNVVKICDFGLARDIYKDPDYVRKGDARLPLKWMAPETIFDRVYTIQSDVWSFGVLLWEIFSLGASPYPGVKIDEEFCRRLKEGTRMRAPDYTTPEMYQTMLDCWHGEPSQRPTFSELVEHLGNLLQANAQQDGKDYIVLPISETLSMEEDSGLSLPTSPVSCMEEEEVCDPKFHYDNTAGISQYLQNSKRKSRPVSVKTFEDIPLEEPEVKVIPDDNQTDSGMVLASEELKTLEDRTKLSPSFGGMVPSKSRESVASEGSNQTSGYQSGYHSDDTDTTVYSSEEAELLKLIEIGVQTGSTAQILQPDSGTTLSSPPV

| Structure (SMILES) | IC50 (Human Axl) [nM] | IC50 (KDR) [nM] | IC50 (AXL) [nM] |
| --- | --- | --- | --- |
| COc1cc2ncnc(Oc3ccc(NC(=O)C4(C(=O)Nc5ccc(F)cc5)CC4)cc3)c2cc1C(=O)NC[C@H]1CCCN1C(=O)OC(C)(C)C [Compound 119, tert-butyl (2R)-2-[[[4-[4-[[1-[(4-fluoro-phenyl)carbamoyl]cyclo-propane-carbonyl]amino]phenoxy]-7-methoxyquinazoline-6-carbonyl]amino]methyl]pyr-rolidine-1-carboxylate] | 10 to 100 | 10 to 100 | 100 to 300 |
| COc1cc2ncnc(Oc3ccc(NC(=O)C4(C(=O)Nc5ccc(F)cc5)CC4)cc3)c2cc1C(=O)NC1COC1 [Compound 115, 1-N′-(4-fluorophenyl)-1-N-[4-[7-methoxy-6-(oxetan-3-ylcarbamoyl)quinazolin-4-yl]oxyphenyl]cyclopropane-1,1-dicarboxamide] | 10 to 100 | 10 to 100 | > 300 |
| COc1cc2ncnc(Oc3ccc(NC(=O)C4(C(=O)Nc5ccc(F)cc5)CC4)cc3)c2cc1C(=O)NC[C@@H]1CCCN1C(=O)OC(C)(C)C [Compound 120, tert-butyl (2S)-2-[[[4-[4-[[1-[(4-fluoro-phenyl)carbamoyl]cyclo-propane-carbonyl]amino]phenoxy]-7-methoxyquinazoline-6-carbonyl]amino]methyl]pyr-rolidine-1-carboxylate] | 10 to 100 | 100 to 300 | > 300 |
| COc1cc2ncnc(Oc3ccc(NC(=O)C4(C(=O)Nc5ccc(F)cc5)CC4)cc3)c2cc1C(N)=O [Compound 117, 1-N-[4-(6-carbamoyl-7-methoxyquinazolin-4-yl)oxyphenyl]-1-N′-(4-fluorophenyl)cyclopropane-1,1-dicarboxamide] | 10 to 100 | 10 to 100 | ≤ 10 |
| COc1cc2ncnc(Oc3ccc(NC(=O)C4(C(=O)Nc5ccc(F)cc5)CC4)cc3)c2cn1 [Compound 104, 1-N′-(4-fluorophenyl)-1-N-[4-(7-methoxypyrido[4,3-d]pyrimidin-4-yl)oxy-phenyl]cyclopropane-1,1-dicarboxamide] | 10 to 100 | > 300 | > 300 |
| COc1cc2ncnc(Oc3ccc(NC(=O)C4(C(=O)Nc5ccc(F)cc5)CC4)cc3)c2cc1C(=O)NCCN1CCCC1 [Compound 118, 1-N′-(4-fluorophenyl)-1-N-[4-[7-methoxy-6-(2-pyrrolidin-1-ylethyl-carbamoyl)quinazolin-4-yl]oxyphenyl]cyclopropane-1,1-dicarboxamide] | 10 to 100 | 100 to 300 | 10 to 100 |
| COc1nc2c(Oc3ccc(NC(=O)C4(C(=O)Nc5ccc(F)cc5)CC4)cc3Cl)ncnc2cc1OCCCN1CCOCC1 [Compound 66, 1-N′-[3-chloro-4-[6-methoxy-7-(3-morpholin-4-ylpropoxy)pyrido[3,2-d]pyrimidin-4-yl]oxyphenyl]-1-N-(4-fluorophenyl)cyclo-propane-1,1-dicarboxamide] | ≤ 10 | ≤ 10 | ≤ 10 |
| COc1cc2ncnc(Oc3ccc(NC(=O)C4(C(=O)Nc5ccc(F)cc5)CC4)cc3F)c2nc1OC [Compound 30, 1-N′-[4-(6,7-dimethoxypyrido[3,2-d]pyrimidin-4-yl)oxy-3-fluorophenyl]-1-N-(4-fluorophenyl)cyclopropane-1,1-dicarboxamide] | ≤ 10 | ≤ 10 | ≤ 10 |
| COc1cc2ncnc(Oc3ccc(NC(=O)C4(C(=O)Nc5ccc(F)cc5)CC4)cc3)c2cc1C(=O)NC[C@@H]1CCCN1 [Compound 122, 1-N′-(4-fluorophenyl)-1-N-[4-[7-methoxy-6-[[(2S)-pyrrolidin-2-yl]methyl-carbamoyl]quinazolin-4-yl]oxyphenyl]cyclopropane-1,1-dicarboxamide] | ≤ 10 | > 300 | 10 to 100 |
| COc1cc2ncnc(Oc3ccc(NC(=O)C4(C(=O)Nc5ccc(F)cc5)CC4)cc3)c2nc1OC [Compound 28, 1-N-[4-(6,7-dimethoxy-pyrido[3,2-d]pyrimidin-4-yl)oxyphenyl]-1-N′-(4-fluorophenyl)cyclo-propane-1,1-dicarboxamide] | ≤ 10 | 10 to 100 | 10 to 100 |
| COc1cc2nccc(Oc3ccc(NC(=O)C4(C(=O)Nc5ccc(F)cc5)CC4)cc3Cl)c2nc1OC [Compound 141, 1-N′-[3-chloro-4-[(6,7-dimethoxy-1,5-naphthyridin-4-yl)oxy]phenyl]-1-N-(4-fluorophenyl)cyclo-propane-1,1-dicarboxamide] | 10 to 100 | ≤ 10 | 10 to 100 |
| COc1cc2ncnc(Oc3ccc(NC(=O)C4(C(=O)Nc5ccc(F)cc5)CC4)cc3)c2cc1C(=O)NC[C@H]1CCCN1 [Compound 121, 1-N′-(4-fluorophenyl)-1-N-[4-[7-methoxy-6-[[(2R)-pyrrolidin-2-yl]methyl-carbamoyl]quinazolin-4-yl]oxyphenyl]cyclopropane-1,1-dicarboxamide] | ≤ 10 | 100 to 300 | 10 to 100 |
| COc1cc2ncnc(Oc3ccc(NC(=O)C4(C(=O)Nc5ccc(F)cc5)CC4)cc3Cl)c2nc1OC [Compound 29, 1-N′-[3-chloro-4-(6,7-dimethoxypyrido[3,2-d]pyrimidin-4-yl)oxyphenyl]-1-N-(4-fluorophenyl)cyclo-propane-1,1-dicarboxamide] | 10 to 100 | ≤ 10 | 10 to 100 |
| COc1nc2c(Oc3ccc(NC(=O)C4(C(=O)Nc5ccc(F)cc5)CC4)cc3F)ncnc2cc1OCCCN1CCOCC1 [Compound 67, 1-N′-[3-fluoro-4-[6-methoxy-7-(3-morpholin-4-ylpropoxy)pyrido[3,2-d]pyrimidin-4-yl]oxyphenyl]-1-N-(4-fluorophenyl)cyclo-propane-1,1-dicarboxamide] | ≤ 10 | ≤ 10 | ≤ 10 |
| COc1cc2c(Oc3ccc(NC(=O)C4(C(=O)Nc5ccc(F)cc5)CC4)cc3)ncnc2cn1 [Compound 91, 1-N′-(4-fluorophenyl)-1-N-[4-(6-methoxypyrido[3,4-d]pyrimidin-4-yl)oxyphenyl]cyclopropane-1,1-dicarboxamide] | 100 to 1000 | > 300 | > 300 |
| COc1nc2c(Oc3ccc(NC(=O)C4(C(=O)Nc5ccc(F)cc5)CC4)cc3)ncnc2cc1OCCCN1CCOCC1 [Compound 65, 1-N′-(4-fluorophenyl)-1-N-[4-[6-methoxy-7-(3-morpholin-4-ylpropoxy)pyrido[3,2-d]pyrimidin-4-yl]oxyphenyl]cyclopropane-1,1-dicarboxamide] | 10 to 100 | ≤ 10 | ≤ 10 |
| COc1cc2nccc(Oc3ccc(NC(=O)C4(C(=O)Nc5ccc(F)cc5)CC4)cc3)c2nc1OC [Compound 139, 1-N-[4-[(6,7-dimethoxy-1,5-naphthyridin-4-yl)oxy]phenyl]-1-N′-(4-fluorophenyl)cyclo-propane-1,1-dicarboxamide] | ≤ 10 | ≤ 10 | ≤ 10 |
| COc1cc2nccc(Oc3ccc(NC(=O)C4(C(=O)Nc5ccc(F)cc5)CC4)cc3F)c2nc1OC [Compound 140, 1-N′-[4-[(6,7-dimethoxy-1,5-naphthyridin-4-yl)oxy]-3-fluorophenyl]-1-N-(4-fluorophenyl)cyclopropane-1,1-dicarboxamide] | ≤ 10 | ≤ 10 | ≤ 10 |
| COc1cc2ncnc(Oc3ccc(NC(=O)C4(C(=O)Nc5ccc(F)cc5)CC4)cc3)c2cc1C(=O)NC1CC1 [Compound 116, 1-N-[4-[6-(cyclopropylcarbamoyl)-7-methoxyquinazolin-4-yl]oxyphenyl]-1-N′-(4-fluorophenyl)cyclopropane-1,1-dicarboxamide] | 10 to 100 | 10 to 100 | 100 to 300 |

Reference: patent publication US11708367B2, “Compounds for the treatment of kinase-dependent disorders” (Exelixis, Inc., priority 2018, dated 2023)
